The values below come from patent publication US9656945B2, “3-acyl-ingenols II” (LEO LABORATORIES LIMITED, priority 2010, dated 2017).

Assay type in all cases: cell-based
Assay [1] deals with PMN's (polymorphonuclear leukocytes). Description: Neutrophil oxidative burst assay. As to conditions: Leukocyte, 40 min, read-out: Neutrophil oxidative burst Rel EC50 range. On the procedure:
PMN's (polymorphonuclear leukocytes) were isolated and purified from fresh buffy coats by sequential sedimentation, density centrifugation and lysis of contaminating erythrocytes. Buffy coats were incubated with 2% methocel for 30-45 min to differentially sediment red blood cells. The leukocyte-rich supernatant was transferred to lymphoprep tubes to remove mononuclear cells by density centrifugation (400×g, 30 min). The pellet was resuspended and any remaining erythrocytes lysed using 0.2% NaCl for 30 sec before restoring isotonicity by the addition of 1.2% NaCl. This step was repeated until the cell pellet appears relatively free of red blood cells. Cells were resuspended in DPBS (Dulbecco's Phosphate Buffered Saline) (w.o. Ca^2+, Mg^2+) and the concentration adjusted to 1.4×10^6 cells/ml in HBSS (Hanks Balanced Salt solution) (w Ca^2+, Mg^2+) containing 0.1% BSA (Bovine Serum Albumin) and 5 mM glucose just prior to assay initiation. Titrated reference and test compounds were pre-mixed with HE (Hydroethidine) (10 μM final assay concentration) before addition to 96-well plates containing 2.5×10^5 cells. Following 40 min incubation at RT, changes in the respiratory burst was estimated by measuring fluorescence at 579 nm (excitation: 485 nm) using an Envision plate reader.
Test compound titration curves were fitted to a four-parameter sigmoidal curve after normalizing the effect of the test compound to the effect of the positive control (5×10^−7 M PEP0005). Rel EC50 denotes the concentration of test compound producing an effect that is midway between the fitted top and bottom. Abs EC50 is the concentration of test compound that provokes a response corresponding to 50% of the maximal effect associated with the positive control (5×10^−7 M PEP0005).

Assay [2] deals with Primary human epidermal keratinocytes, HeKa. Description: HeKa cytokine release (IL-8) assay. The protocol:
Primary human epidermal keratinocytes, HeKa, were seeded (10.000 cells/well) in 96-well plates the day before the assay. Test compounds were diluted in DMSO (dimethyl sulfoxide) and further diluted in assay medium and pipetted into wells of 96 well-plates containing HeKa cells. The plates were incubated for 6 h at 37° C. in humidified air with 5% CO2. Plates are centrifuged briefly to spin down cells at 4° C., the supernatant was removed and analysed by Meso Scale Discovery (MSD) 4-spot cytokine assay (Pro-inflammatory II Ultra Sensitive kit, MSD, MD, USA). The MSD assay employs a sandwich immunoassay format where capture antibodies were coated in a patterned array on the bottom of the wells of a 4-Spot-Multi-MSD plate. Standard samples were incubated in the MULTI-SPOT plates as well, and the cytokine (IL-8) binds to its corresponding capture antibody spot. The cytokine level was quantitated on a SECTOR™ Imager using a cytokine-specific Detection Antibody labelled with MSD SULFO-TAG™ reagent.
Test compound titration curves were fitted to a four-parameter sigmoidal curve after normalizing the effect of the test compound to the effect of the positive control (1.5×10^−7 M PEP0005). Rel EC50 denotes the concentration of test compound producing an effect that is midway between the fitted top and bottom.

For assay [3], the system named is HeLa cells (ATCC CCL-002). Description: Necrosis assay. As to conditions: Homo sapiens, 0.5 h, read-out: HeLa necrosis EC50 range. The protocol: HeLa cells (ATCC CCL-002) were grown in minimal essential medium (Invitrogen catalog no. 42360) containing 10% fetal bovine serum, 100 IU/ml penicillin and 100 μg/ml streptomycin. 4,000-6,000 cells were seeded into 96-well black ViewPlates-plates, clear bottom, (Perkin Elmer) in 100 μl medium and incubated overnight. Compounds were dissolved and pre-diluted in DMSO in 96-well polypropylene plates (Greiner) in a concentration range of 15 μM to 600 μM. At the time of the experiment cell plates were placed on heating blocks at 37° C., medium was removed and 40 μl fresh, pre-warmed medium was added per well. Cells were incubated for 15 min before addition of compounds. In parallel, 3 μl of compounds were diluted with 197 μl growth medium on a Tecan freedom-EVO pipetting station using 250 μl/s pipetting speed, in order to ensure effective mixing of the highly concentrated compound solutions with the aqueous phase. These pre-dilution plates were then equilibrated on heating blocks at 37° C. for 10 min. 80 μl pre-diluted compound were transferred manually to the corresponding wells containing HeLa cells yielding compound concentrations of 10 μM to 400 μM. Control conditions were 1% DMSO in growth medium (100% viability) and 400 μM ingenol mebutate in growth medium (0% viability). Plates were incubated on the heating blocks at 37° C. for 30 min. At the end of the incubation 10 μl PrestoBlue reagent (Invitrogen) were added to each well, plates were sealed with black seal, followed by incubation at 37° C. for 10 min with gentle shaking (150 rpm). Subsequently, plates were placed at room temperature for 20-30 min. Plates were read immediately after on an Envision Fluorescence reader (Perkin Elmer) with excitation at 535 nm and emission at 630 nm. Test compound titration curves were fitted to a four-parameter sigmoidal curve after normalizing the effect of the test compound to the effect of the positive control (4 10^−4 M PEP0005/ingenol mebutate). AbsEC50 denotes the concentration of test compound producing 50% effect.

Setting [4] is: 6 h, read-out: HeKa cytokine release (IL-8) Rel EC50 range.
[5] abbreviates: 40 min incubation at RT, normalized to positive control 5×10^−7 M PEP0005.
[6] abbreviates: 6 h at 37° C., normalized to positive control 1.5×10^−7 M PEP0005, read-out: HeKa cytokine release (IL-8) Rel EC50 range.
The mark [7] stands for this setting: 30 min at 37° C., PrestoBlue, normalized to 4 10^−4 M PEP0005/ingenol mebutate.

Like-named read-outs stand apart in the source and are kept apart here.

As to `CC1=C[C@]23C(=O)[C@@H](C=C(CO)[C@@H](O)[C@]2(O)[C@H]1OC(=O)c1ccccc1OC(C)C)[C@H]1[C@@H](C[C@H]3C)C1(C)C` [Compound 324, Ingenol 3-(2-isopropoxy-benzoate)], the results for the EC50 in assay [1], in assay [2] (setting [4]) and in assay [3] were below 20 nM, below 20 nM and below 150 µM, respectively.
As to `CC1=C[C@]23C(=O)[C@@H](C=C(CO)[C@@H](O)[C@]2(O)[C@H]1OC(=O)c1c(C)cc(C)cc1C)[C@H]1[C@@H](C[C@H]3C)C1(C)C` [Compound 325, Ingenol 3-(2,4,6-trimethyl-benzoate)], the EC50 in assay [1] is below 20 nM; in assay [2] (setting [4]) it was below 20 nM; in assay [3] it was below 150 µM.
Regarding `CC1=C[C@]23C(=O)[C@@H](C=C(CO)[C@@H](O)[C@]2(O)[C@H]1OC(=O)c1ccccc1N)[C@H]1[C@@H](C[C@H]3C)C1(C)C` [Compound 330, Ingenol 3-(2-amino-benzoate)], the EC50 in assay [1] (setting [5]) was below 20 nM; in assay [2] (setting [6]) it was below 20 nM; in assay [3] (setting [7]), 150 to 350 µM.
Consider `CC1=C[C@]23C(=O)[C@@H](C=C(CO)[C@@H](O)[C@]2(O)[C@H]1OC(=O)c1ccccc1NCc1ccccc1)[C@H]1[C@@H](C[C@H]3C)C1(C)C` [Compound 331, Ingenol 3-(2-benzylamino-benzoate)], for which the concentration for a half-maximal effect (EC50) in assay [1] was below 20 nM; in assay [2] (setting [4]), below 20 nM; in assay [3] it was below 150 µM.
For `CC1=C[C@]23C(=O)[C@@H](C=C(CO)[C@@H](O)[C@]2(O)[C@H]1OC(=O)c1c(C)cccc1NCc1ccccc1)[C@H]1[C@@H](C[C@H]3C)C1(C)C` [Compound 332, Ingenol 3-(2-benzylamino-6-methyl-benzoate)], the EC50 in assay [1] was 20 to 100 nM; in assay [2] (setting [4]) it was below 20 nM; in assay [3] it was below 150 µM.
In the same order, the values of `COc1cccc(NCc2ccccc2)c1C(=O)O[C@H]1C(C)=C[C@]23C(=O)[C@@H](C=C(CO)[C@@H](O)[C@]12O)[C@H]1[C@@H](C[C@H]3C)C1(C)C` [Compound 333, Ingenol 3-(2-benzylamino-6-methoxy-benzoate)] are 20 to 100 nM, below 20 nM and below 150 µM.
The matching figures for `CC1=C[C@]23C(=O)[C@@H](C=C(CO)[C@@H](O)[C@]2(O)[C@H]1OC(=O)c1c(C)cccc1N)[C@H]1[C@@H](C[C@H]3C)C1(C)C` [Compound 335, Ingenol 3-(2-amino-6-methyl-benzoate)]: below 20 nM, below 20 nM and below 150 µM.
In the case of `CC1=C[C@]23C(=O)[C@@H](C=C(CO)[C@@H](O)[C@]2(O)[C@H]1OC(=O)c1ccccc1Nc1ccccc1)[C@H]1[C@@H](C[C@H]3C)C1(C)C` [Compound 336, Ingenol 3-(2-phenylamino-benzoate)], the values for the EC50 in assay [1], in assay [2] (setting [4]) and in assay [3] were below 20 nM, below 20 nM and below 150 µM, respectively.
With `CNc1cccc(C)c1C(=O)O[C@H]1C(C)=C[C@]23C(=O)[C@@H](C=C(CO)[C@@H](O)[C@]12O)[C@H]1[C@@H](C[C@H]3C)C1(C)C` [Compound 339, Ingenol 3-(2-methyl-6-methylamino-benzoate)], the EC50 in assay [1] was 20 to 100 nM; in assay [2] (setting [4]), below 20 nM; in assay [3], below 150 µM.
The matching figures for `CC1=C[C@]23C(=O)[C@@H](C=C(CO)[C@@H](O)[C@]2(O)[C@H]1OC(=O)c1c(N)cccc1Cl)[C@H]1[C@@H](C[C@H]3C)C1(C)C` [Compound 340, Ingenol 3-(2-amino-6-chloro-benzoate)]: below 20 nM, 20 to 100 nM and below 150 µM.
In the same order, the values of `CC1=C[C@]23C(=O)[C@@H](C=C(CO)[C@@H](O)[C@]2(O)[C@H]1OC(=O)c1c(N)cccc1F)[C@H]1[C@@H](C[C@H]3C)C1(C)C` [Compound 341, Ingenol 3-(2-amino-6-fluoro-benzoate)] are below 20 nM, below 20 nM and below 150 µM.
The matching figures for `CNc1cccc(Cl)c1C(=O)O[C@H]1C(C)=C[C@]23C(=O)[C@@H](C=C(CO)[C@@H](O)[C@]12O)[C@H]1[C@@H](C[C@H]3C)C1(C)C` [Compound 342, Ingenol 3-(2-chloro-6-methylamino-benzoate)]: 20 to 100 nM, below 20 nM and below 150 µM.
Take `CNc1cccc(F)c1C(=O)O[C@H]1C(C)=C[C@]23C(=O)[C@@H](C=C(CO)[C@@H](O)[C@]12O)[C@H]1[C@@H](C[C@H]3C)C1(C)C` [Compound 343, Ingenol 3-(2-fluoro-6-methylamino-benzoate)]: the EC50 in assay [1] is below 20 nM; in assay [2] (setting [4]), below 20 nM; in assay [3], below 150 µM.
Turning to `CC1=C[C@]23C(=O)[C@@H](C=C(CO)[C@@H](O)[C@]2(O)[C@H]1OC(=O)C1=C(C)CCCC1(C)C)[C@H]1[C@@H](C[C@H]3C)C1(C)C` [Compound 345, Ingenol 3-(2,6,6-trimethylcyclohexene-1-carboxylate)], the half-maximal effective concentration (EC50) is below 20 nM in assay [1], below 20 nM in assay [2] (setting [4]) and below 150 µM in assay [3].
For the compound `C/C=C(/C)C(=O)O[C@H]1C(C)=C[C@]23C(=O)[C@@H](C=C(CO)[C@@H](O)[C@]12O)[C@H]1[C@@H](C[C@H]3C)C1(C)C` [Ingenol-3-angelate, reference compound], the EC50 in assay [1] (setting [5]) is below 20 nM; in assay [2] (setting [6]), below 20 nM; in assay [3] (setting [7]), 150 to 350 µM.

In general, EC50 refers to the concentration that produces a half-maximal response.
